# Experiments:
# [1] = in vivo; cited from earlier work
# [2] = in vivo
Structure (SMILES),HIA(Human Intestinal Absorption) [1],Class(High: HIA value ≥0.7; Low: HIA value < 0.7) [2]
C[C@]12CC[C@H]3[C@@H](CCC4=CC(=O)CC[C@@]43C)[C@@H]1CC[C@@H]2O [Testosterone],1,High (key: High: HIA value ≥0.7; Low: HIA value < 0.7)
CC[C@]1(c2ccc(N)cc2)CCC(=O)NC1=O [Aminoglutethimide(R)],1,High (key: High: HIA value ≥0.7; Low: HIA value < 0.7)
CC(=O)Oc1ccc2c3c1O[C@H]1[C@@H](OC(C)=O)C=C[C@H]4[C@@H](C2)N(C)CC[C@@]341 [Diacetylmorphine],1,High (key: High: HIA value ≥0.7; Low: HIA value < 0.7)
NC(=O)C[S+]([O-])C(c1ccccc1)c1ccccc1 (stereo not shown) [Modafinil],0.8,High (key: High: HIA value ≥0.7; Low: HIA value < 0.7)
Cc1nccn1C[C@H]1CCc2c(c3ccccc3n2C)C1=O [Ondansetron(R)],1,High (key: High: HIA value ≥0.7; Low: HIA value < 0.7)
CCN(CCO)CCC[C@@H](C)Nc1ccnc2cc(Cl)ccc12 [Hydroxychloroquine(R)],0.9,High (key: High: HIA value ≥0.7; Low: HIA value < 0.7)
CN1C(=O)CCC1c1cccnc1 (stereo in doubt) [Cotinine(R)],0.97,High (key: High: HIA value ≥0.7; Low: HIA value < 0.7)
CCN(CC)[C@@H](C)C(=O)c1ccccc1 [Diethylpropion(S)],0.95,High (key: High: HIA value ≥0.7; Low: HIA value < 0.7)
C[C@@H](C(=O)O)c1cccc(Oc2ccccc2)c1 [Fenoprofen(R)],0.85,High (key: High: HIA value ≥0.7; Low: HIA value < 0.7)
O[C@](CCN1CCCCC1)(c1ccccc1)C1CCCCC1 [Trihexyphenidyl(S)],1,High (key: High: HIA value ≥0.7; Low: HIA value < 0.7)
Cc1ccccc1N1C(=O)c2cc(S(N)(=O)=O)c(Cl)cc2N[C@H]1C [Metolazone(R)],0.64,Low (key: High: HIA value ≥0.7; Low: HIA value < 0.7)
COc1cccc(C(=O)CCN[C@@H](C)[C@H](O)c2ccccc2)c1 [Oxyfedrine],0.84,High (key: High: HIA value ≥0.7; Low: HIA value < 0.7)
CCN(CCO)CCC[C@H](C)Nc1ccnc2cc(Cl)ccc12 [Hydroxychloroquine(S)],0.9,High (key: High: HIA value ≥0.7; Low: HIA value < 0.7)
CC[C@@H](c1ccccc1)c1c(O)c2ccccc2oc1=O [Phenprocoumon(S)],0.95,High (key: High: HIA value ≥0.7; Low: HIA value < 0.7)
CC(C)NC[C@H](O)c1ccc(O)c(O)c1 [Isoproterenol(R)],0.85,High (key: High: HIA value ≥0.7; Low: HIA value < 0.7)
CN(C)C(=O)O[C@H]1N=C(c2ccccc2)c2cc(Cl)ccc2N(C)C1=O [Camazepam(R)],1,High (key: High: HIA value ≥0.7; Low: HIA value < 0.7)
COC(=O)C1=C(C)NC(C)=C(C(=O)OCCN(C)Cc2ccccc2)[C@H]1c1cccc([N+](=O)[O-])c1 [Nicardipine(S)],0.95,High (key: High: HIA value ≥0.7; Low: HIA value < 0.7)
COc1cc2nc(N3CCN(C(=O)[C@H]4COc5ccccc5O4)CC3)nc(N)c2cc1OC [Doxazosin(R)],1,High (key: High: HIA value ≥0.7; Low: HIA value < 0.7)
N=C(N)NC[C@H]1COc2ccccc2O1 [Guanoxan(S)],0.5,Low (key: High: HIA value ≥0.7; Low: HIA value < 0.7)
NCC1(CC(=O)O)CCCCC1 [Gabapentin],0.59,Low (key: High: HIA value ≥0.7; Low: HIA value < 0.7)
CCCNC1CCc2nc(N)sc2C1 (stereo in doubt) [Pramipexole(R)],0.8,High (key: High: HIA value ≥0.7; Low: HIA value < 0.7)
CCOC(=O)C1=C(C)NC(C)=C(C(=O)OC)[C@@H]1c1cccc([N+](=O)[O-])c1 [Nitrendipine(S)],0.88,High (key: High: HIA value ≥0.7; Low: HIA value < 0.7)
COC(=O)C(c1ccccc1)C1CCCCN1 (stereo not shown) [Methylphenidate],0.8,High (key: High: HIA value ≥0.7; Low: HIA value < 0.7)

# Source: paper PMC4460250, “Systems Pharmacology Dissecting Holistic Medicine for Treatment of Complex Diseases: An Example Using Cardiocerebrovascular Diseases Treated by TCM” (Evidence-based Complementary and Alternative Medicine : eCAM, 2015)
